According to PMC8551967 (Frontiers in Microbiology, 2021):
Non-standard residues stand in square brackets, D forms with d. Residues, ends and D or L forms follow the SMILES beside them. *: point of attachment. Leu(ol) = CC(C)C[C@H](N)CO; Octanoyl = CCCCCCCC(=O)*; Aib = CC(C)(N)C(=O)O

Assays:
[1] = test system: Pyricularia oryzae IT10 strain on rice (cv. Vialone Nano); settings: in vivo
[2] = test system: Pyricularia oryzae IT10 strain on barley leaves (cv. Alora); settings: in vivo
[3] = test system: Pyricularia oryzae (strains AP, Guy11, I203 and IT10); settings: for inhibition of fungal growth compared to the untreated control: 96 h, 50 μM, pH 6.85
[4] = test system: P. oryzae (IT10 strain) conidia; type: cell-based, Pyricularia oryzae
[5] = test system: P. oryzae conidia; type: cell-based, Pyricularia oryzae; settings: pH 7
[6] = test system: P. oryzae AP strain; type: cell-based, Pyricularia oryzae
[7] = test system: P. oryzae IT10 strain; type: cell-based, Pyricularia oryzae
[8] = test system: P. oryzae Guy11 strain; type: cell-based, Pyricularia oryzae
[9] = test system: P. oryzae I203 strain; type: cell-based, Pyricularia oryzae

Compound	reduction in Disease Severity Index (DSI) [1]	reduction of blast lesion area in comparison with untreated barley leaves [2]	significance of lesion inhibition compared to the Control [2]	inhibition of fungal growth (in words) [3]	inhibition of fungal growth compared to the untreated control [3]	morphology and germination of treated conidia [4]	further results
nOct-Aib—Lys-Lys-Leu-Aib-Gly-Ile-Leu-NH2 [Pep 4C2]	65-70%	about 75%	Significant inhibition	relatively little or no inhibition against one or two strains	–	–	representative lesions on rice leaves (in words) [1]: reduced lesions
nOct-Aib-Gly-Leu-Aib-Lys-Gly-Leu-Aib-Gly-Ile-Lol [Pep 3]	inefficacy	–	–	–	–	–	–
nOct-Aib-Gly-Leu-Aib-Gly-Lys-Leu-Aib-Gly-Ile-Lol [Pep 22]	–	ineffective	–	relatively little or no inhibition against one or two strains	–	–	–
CCCCCCCC(=O)NC(C)(C)C(=O)N[C@@H](CCCCN)C(=O)N[C@@H](CC(C)C)C(=O)NC(C)(C)C(=O)NCC(=O)NCC(=O)N[C@@H](CC(C)C)C(=O)NC(C)(C)C(=O)NCC(=O)N[C@H](C(=O)N[C@H](CO)CC(C)C)[C@@H](C)CC [Pep 2] (Octanoyl-[Aib]KL[Aib]GGL[Aib]GI[Leu(ol)])	–	ineffective	–	–	more than 90%	important morphological changes	–
nOct-Aib-Gly-Leu-Aib-Gly-Gly-Leu-Aib-Gly-Ile-Lol [Trichogin, Trichogin GA IV, reference compound]	–	ineffective	–	–	–	–	activity of trichogin against P. oryzae in vitro [3]: ineffective
nOct-Aib-Gly-Leu-Aib-Gly-Gly-Leu-Api-Gly-Ile-Lol [Pep 8Api]	50-55%	higher than 95%	Significant inhibition	relatively little or no inhibition against one or two strains	–	important morphological changes	–
CCCCCCCC(=O)NC(C)(C)C(=O)N[C@@H](CCCCN)C(=O)N[C@@H](CC(C)C)C(=O)NC(C)(C)C(=O)NCC(=O)NCC(=O)N[C@@H](CC(C)C)C(=O)NC(C)(C)C(=O)NCC(=O)N[C@H](C(=O)N[C@@H](CC(C)C)C(N)=O)[C@@H](C)CC [Pep 2Rink] (Octanoyl-[Aib]KL[Aib]GGL[Aib]GIL-NH2)	65-70%	about 92%	Significant inhibition	–	more than 90%	–	representative lesions on rice leaves (in words) [1]: reduced lesions; representative lesions on barley leaves (in words) [2]: Almost no lesions
nOct-Aib-Lys-Leu-Aib-Gly-Lys-Leu-Aib-Gly-Ile-Lol [Pep 7]	65-70%	higher than 95%	Significant inhibition	relatively little or no inhibition against one or two strains	–	–	–
CCCCCCCC(=O)NC(C)(C)C(=O)NCC(=O)N[C@@H](CC(C)C)C(=O)NC(C)(C)C(=O)N[C@@H](CCCCN)C(=O)N[C@@H](CCCCN)C(=O)N[C@@H](CC(C)C)C(=O)NC(C)(C)C(=O)NCC(=O)N[C@H](C(=O)N[C@H](CO)CC(C)C)[C@@H](C)CC [Pep 4]	65-70%	higher than 95%	Significant inhibition	–	more than 90%	important morphological changes	–
CCCCCCCC(=O)NC(C)(C)C(=O)N[C@@H](CCCCN)C(=O)N[C@@H](CCCCN)C(=O)N[C@@H](CC(C)C)C(=O)NC(C)(C)C(=O)NCC(=O)N[C@H](C(=O)N[C@H](CO)CC(C)C)[C@@H](C)CC [Pep 4C] (Octanoyl-[Aib]KKL[Aib]GI[Leu(ol)])	–	~70%	Significant inhibition	–	more than 90%	important morphological changes	–
nOct-Aib-Gly-Leu-Aib-Lys-Lys-Leu—Leu-NH2 [Pep 4C1]	–	ineffective	–	relatively little or no inhibition against one or two strains	–	–	–
CCCCCCCC(=O)NC(C)(C)C(=O)N[C@@H](CCCCN)C(=O)N[C@@H](CC(C)C)C(=O)NC(C)(C)C(=O)N[C@@H](CCCCN)C(=O)NCC(=O)N[C@@H](CC(C)C)C(=O)NC(C)(C)C(=O)N[C@@H](CCCCN)C(=O)N[C@H](C(=O)N[C@H](CO)CC(C)C)[C@@H](C)CC [Pep 5] (Octanoyl-[Aib]KL[Aib]KGL[Aib]KI[Leu(ol)])	65-70%	higher than 95%	Significant inhibition	–	more than 90%	important morphological changes	representative lesions on rice leaves (in words) [1]: reduced lesions
nOct-Aib-Gly-Leu-Aib-Lys-Aib-Leu-Aib-Gly-Ile-Lol [Pep 6]	–	–	–	–	–	germinated normally and did not show any morphological alteration	mycelium growth in the presence of the peptide versus untreated control [5]: grew better than the untreated control
H-FKR[Aib]KK[Aib]FKK[Aib]WNWK-NH2 [Pep 12]	–	–	–	relatively little or no inhibition against one or two strains	–	–	–
Palmitoyl-His-Ala-Ala-His-Lys(ε-Ser)-Gly-COOH [Pep 19]	–	–	–	relatively little or no inhibition against one or two strains	–	germinated normally and did not show any morphological alteration	inhibition of AP strain (in words) [6]: did not inhibit; inhibition of IT10 strain (in words) [7]: partially inhibited; inhibition of Guy11 strain (in words) [8]: did not inhibit; inhibition of I203 strain (in words) [9]: did not inhibit
